Laboratory results taken from US20240218009A1, “NOVEL FORMS OF CYCLIC DINUCLEOTIDE COMPOUNDS” (Merck Sharp & Dohme LLC, priority 2021, published 2024).
Like-named read-outs stand apart in the source and are kept apart here.

Conditions: pH 6.0, approx. 20-30 mg/mL, stirred at ambient conditions for minimum 16 hours, precipitate analysed by XRPD
Experimental: Equilibrium solubility experiments were conducted by mixing Compound A and the solution of interest at a concentration of approximately 20-30 mg/mL (Table 1). The solution of interest contained either 50 mM L-histidine or phosphate buffer (pH: 5.8<x<6.3). Additional Compound A was added until a cloudy solution was maintained. The samples were stirred at ambient conditions for a minimum of 16 hours. At the conclusion of the solubility measurements, solutions were clarified by centrifugation. The wet precipitated material was transferred to a 96-well transmission XRPD sample plate and allowed to dry to room temperature prior to XRPD analysis.
X-ray powder diffraction patterns for the solid phases of Compound A were generated on a Philips Analytical X'Pert PRO X-ray Diffraction System with a high throughput stage. A Cu K-Alpha radiation source was used. […] The experiments were analyzed at ambient conditions.

Question: What does the source list for `Nc1nc2c(ncn2[C@@H]2O[C@@H]3CO[P@@](O)(=S)O[C@H]4[C@H](F)[C@H](n5cnc6c(N)ncnc65)O[C@@H]4CO[P@@](O)(=S)O[C@@H]2[C@@H]3F)c(=O)[nH]1.[Na]` [Crystalline, mono-sodium salt, Monosodium salt of 2-amino-9-[(2R,5R,7R,8S,10R,12aR,14R,15S,15aR,16R)-14-(6-amino-9H-purin-9-yl)-15,16-difluoro-2,10-dihydroxy-2,10-disulfidooctahydro-12H-5,8-methanofuro [3,2-1][1,3,6,9,11,2,10]pentaoxa-diphosphacyclotetradecin-7-yl]-1,9-dihydro-6H-purin-6-one]?
Answer: Compound A Terminal Phase (50 mM L-histidine buffer): Form 1; Compound A Terminal Phase (50 mM phosphate buffer): Crystalline mono-
